The subject of one test is platelet of SD rats. The test is described as follows: In vitro anti-platelet effect: platelet aggregation induced by ADP + serotonin in rat platelet rich plasma. The test is classed as cell-based. The conditions noted are these: rat PRP, 0.5 μM or 0.8 μM ADP + serotonin, 50% inhibition of the serotonin-caused increase in aggregation. How it is done:
The anti-platelet effect due to the serotonin antagonistic activity was measured in vitro using the platelet of SD rats (body weight: about 300 to 400 g, male). Platelet rich plasma (PRP) and platelet poor plasma (PPP) were prepared from blood with 0.38% sodium citrate which was obtained from aorta abdominalis of a rat under diethyl ether anesthesia. The platelet concentration of PRP was adjusted to 5×10^8 platelets/ml by adding PPP. Then, the test compound dissolved in 0.4% aqueous ethanol was added, and the mixture was incubated at 37° C. for 3 minutes. The platelet aggregation induced by addition of 0.5 μM or 0.8 μM adenosine diphosphate (ADP)+ serotonin was measured as an increase in optical transmittance of PRP. The concentration of the test compound which inhibits 50% of the increase in platelet aggregation which is obtained with serotonin without a test compound was measured, and its negative logarithm (pIC50) was calculated.

Another test addresses T1, serotonin 2 receptor (Bos taurus, UniProt Q75Z89).
T1 construct: evaluated using a bovine cerebral cortex membrane sample; from tissue; host or cells: bovine cerebral cortex membranes
The test is described as follows: Binding affinity to the serotonin 2 receptor, [3H]-ketanserin, bovine cerebral cortex membrane. Conditions: negative logarithm of Ki, 3 nM [3H]-ketanserin, 25° C., 30 minutes. The protocol: The binding affinity to the serotonin 2 receptor was evaluated using a bovine cerebral cortex membrane sample. To 200 μl of a bovine membrane sample adjusted to 50 mg (wet weight) membrane/ml were added 200 μl of 3 nM [^3H]-ketanserin and 200 μl of a test compound solution prepared by dissolving a test compound in 1.7% ethanol, followed by mixing. The mixture was incubated at 25° C. for 30 minutes and filtered with a glass filter. The radioactivity trapped on the filter was measured with a liquid scintillation counter. The non-specific binding was defined by 10^−6 M LY53857. The concentration of the test compound which inhibits 50% of the specific binding of [^3H]-ketanserin (i.e., IC50 value) was obtained, and the Ki value was calculated in accordance with the following equation. The results are shown as the negative logarithm of the Ki value (i.e., pKi value). [formula]
In the equation, Ki indicates the dissociation constant and [L] indicates the concentration of [^3H]-ketanserin.

Test [1] concerns head twitch of mouse induced by 5-hydroxytryptophan (5HTP). The test is described as follows: Inhibiting effect on head twitch of mouse induced by 5-hydroxytryptophan (5HTP). The test is classed as in vivo, ICR mouse. Conditions: oral, 90 minutes before 5HTP (180 mg/kg i.p.); 50% inhibition of the number of head twitches. The protocol: The serotonin antagonistic activity in the central nerve system was evaluated by measuring the inhibiting effect on head twitch of mouse induced by 5-hydroxytryptophan (5HTP) A test compound in an amount of 1, 3, 10, or 30 mg was respectively dissolved in 100 ml of water and, 90 minutes before 5HTP administration, the solution (10 ml/kg body weight) was orally administered to a ICR mouse (body weight: 27 to 32 g, male) fasted from the previous day. As a control, 5% arabic gum was used. Carbidopa (6 mg/kg) was subcutaneously administered and, after 15 minutes, 5HTP (180 mg/kg) was intraperitoneally administered. From the 15 minutes after 5HTP administration, the number of head twitches occurred within 2 minutes were counted. The concentration of the test compound which inhibits 50% of the number of head twitches in the 5% arabic gum administered group was obtained.

Test [2] concerns platelet aggregation by serotonin. The test is described as follows: In vivo anti-platelet effect after oral administration: ADP + serotonin induced aggregation of PRP taken 2 hours after dosing. Also on record: species or system SD rats. The conditions noted are these: 2 hours after administration, arabic gum group = 100%, n=3. The protocol:
The anti-platelet effect due to the serotonin antagonistic activity was measured in vivo using SD rats (body weight: about 210 to 330 g, male). Two hours after the administration of the test compound, the rat was anesthetized with diethyl ether and platelet rich plasma (PRP) and platelet poor plasma (PPP) were prepared from blood with 0.38% sodium citrate which was obtained from aorta abdominalis of the rat. The platelet concentration of PRP was adjusted to 5×10^8 platelets/ml by adding PPP. Then, the PRP was incubated at 37° C. for 3 minutes, and platelet aggregation induced by addition of 0.7 μM adenosine diphosphate (ADP)+ serotonin was measured as an increase in optical transmittance of PRP. The aggregation occurred by addition of ADP alone and the maximum aggregation ratio by the simultaneous addition of ADP and serotonin were measured with respect to each group, and increase in aggregation caused by serotonin was calculated. The increase in aggregation caused by serotonin in the arabic gum administered group was taken as 100%, and the effect of the test compound was judged using as an index the increase in aggregation caused by the serotonin in the test compound-administered group (n=3).

SMILES strings stand for the structures.

T1 sequence (Q75Z89 whole entry): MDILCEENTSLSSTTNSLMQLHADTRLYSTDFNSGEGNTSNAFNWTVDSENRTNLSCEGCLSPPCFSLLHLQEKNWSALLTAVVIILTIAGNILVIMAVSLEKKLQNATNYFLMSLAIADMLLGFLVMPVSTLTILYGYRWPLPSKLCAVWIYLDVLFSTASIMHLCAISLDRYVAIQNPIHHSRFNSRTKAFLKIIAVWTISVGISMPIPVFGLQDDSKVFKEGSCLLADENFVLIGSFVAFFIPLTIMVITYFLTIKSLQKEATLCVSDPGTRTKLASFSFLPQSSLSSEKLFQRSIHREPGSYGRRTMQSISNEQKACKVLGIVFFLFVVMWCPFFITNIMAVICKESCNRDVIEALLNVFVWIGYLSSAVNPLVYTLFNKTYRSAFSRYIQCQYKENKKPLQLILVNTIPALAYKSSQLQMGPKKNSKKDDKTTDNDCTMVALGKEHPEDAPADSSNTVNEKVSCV

In general, pIC50 refers to the IC50 on a negative log10 scale, so that one unit is a factor of ten. As a reminder, the pKi is the Ki on a negative log10 scale, so that one unit is a factor of ten. Read a low pKi as a large Ki. For `O=C(NCCN1CCC(=C2c3ccccc3C=Cc3ccccc32)CC1)C1CCNCC1` [Compound 2], in the test on platelet of SD rats, the pIC50 stood at 7.3. The same molecule gave a pKi on serotonin 2 receptor of 8.6.
For orientation: IC50 means the concentration at which inhibition is half-maximal. By Ki is commonly meant the dissociation constant of the complex between target and ligand, obtained from inhibition or displacement. A low value points to a stronger hold on the target. Consider `O=CN1CCC(C(=O)NCCN2CCC(=C3c4ccccc4C=Cc4ccccc43)CC2)CC1` [Compound 3], for which the half-maximal inhibitory concentration (IC50) in the test on platelet of SD rats (Platelet) is 63.1 nM. For the same molecule, the ID50 in test [1] worked out at 0.39 mg/kg. The “Increase in aggregation by serotonin” value is on record as 75.7% in test [2] (0.1 mg/kg oral); 57.3% in test [2] (0.3 mg/kg oral); 24.3% in test [2] (1 mg/kg oral); 27% in test [2] (3 mg/kg oral); −2.7% in test [2] (10 mg/kg oral). Besides, the Ki at serotonin 2 receptor was 3.98 nM.
As to `CC(C)(C)OC(=O)N1CCC(C(=O)NCCN2CCC(=C3c4ccccc4C=Cc4ccccc43)CC2)CC1` [Compound 5], the pIC50 with platelet of SD rats is 6.5. The same molecule gave a negative-log Ki (pKi) on serotonin 2 receptor of 8.0.
For `O=CN1CCC(C(=O)NCCN2CCC(=C3c4ccccc4C=Cc4ccccc43)CC2)CC1` [Compound 6], the pIC50 in the test with platelet of SD rats was determined as 6.9.
Turning to `CC(=O)NCC(=O)N1CCC(C(=O)NCCN2CCC(=C3c4ccccc4C=Cc4ccccc43)CC2)CC1` [Compound 8], the pIC50 with platelet of SD rats stood at 6.6. Moreover, the pKi on serotonin 2 receptor was found to be 7.9.
Consider `O=C(NCCN1CCC(=C2c3ccccc3C=Cc3ccccc32)CC1)C1CCCCN1` (centres unmarked) [Compound 9], for which, in the test on platelet of SD rats, the pIC50 was 7.1. In addition, in test [2] (0.3 mg/kg oral), the “Increase in aggregation by serotonin” value was determined as 57.3%. Moreover, the pKi on serotonin 2 receptor is recorded as 7.8.
`O=CN1CCN(C(=O)NCCN2CCC(=C3c4ccccc4C=Cc4ccccc43)CC2)CC1` [Compound 11]: the pIC50 in the test with platelet of SD rats was 7.0. This molecule showed a pKi at serotonin 2 receptor of 8.8.
The matching figures for `NC1CCC(C(=O)NCCN2CCC(=C3c4ccccc4C=Cc4ccccc43)CC2)CC1` (centres unmarked) [Compound 12]: 6.6 and 8.6.
In the case of `CCOC(=O)NCCN1CCC(=C2c3ccccc3C=Cc3ccccc32)CC1` [Compound 16], the pIC50 in the test on platelet of SD rats is reported as 7.6.
As to `CC(C)(C)OC(=O)NCCN1CCC(=C2c3ccccc3C=Cc3ccccc32)CC1` [Compound 17], the negative logarithm of the IC50 (pIC50) in the test with platelet of SD rats is reported as 7.0. Further, the “Increase in aggregation by serotonin” value in test [2] (0.3 mg/kg oral) was 50.7%.
Take `NC1(C(=O)NCCN2CCC(=C3c4ccccc4C=Cc4ccccc43)CC2)CCCCC1` [Compound 18]: the negative logarithm of the IC50 (pIC50) in the test with platelet of SD rats is 7.3. Moreover, the “Increase in aggregation by serotonin” value in test [2] (0.3 mg/kg oral) amounted to 94.9%. The molecule further registered a pKi on serotonin 2 receptor of 8.9.
Turning to `CC(=O)NC1(C(=O)NCCN2CCC(=C3c4ccccc4C=Cc4ccccc43)CC2)CCCCC1` [Compound 19], the pIC50 in the test with platelet of SD rats was 6.4. Also, the pKi at serotonin 2 receptor is on record as 8.3.
The corresponding values for `CC(C)(C)OC(=O)NC1(C(=O)NCCN2CCC(=C3c4ccccc4C=Cc4ccccc43)CC2)CCCCC1` [Compound 20] are 6.3 and 8.0.
The matching figures for `O=CNC1(C(=O)NCCN2CCC(=C3c4ccccc4C=Cc4ccccc43)CC2)CCCCC1` [Compound 21]: 6.5 and 7.8.
The matching figures for `CN(C)C(=O)NC1(C(=O)NCCN2CCC(=C3c4ccccc4C=Cc4ccccc43)CC2)CCCCC1` [Compound 22]: 5.8 and 8.2.
Turning to `NCCCC(=O)NCCN1CCC(=C2c3ccccc3C=Cc3ccccc32)CC1` [Compound 23], the pIC50 with platelet of SD rats came out at 7.6.
Take `O=CNCCCC(=O)NCCN1CCC(=C2c3ccccc3C=Cc3ccccc32)CC1` [Compound 24]: in the test with platelet of SD rats, the negative logarithm of the IC50 (pIC50) worked out at 7.2. Moreover, on serotonin 2 receptor, the pKi stood at 9.8.
The corresponding values for `CC(=O)NCCCC(=O)NCCN1CCC(=C2c3ccccc3C=Cc3ccccc32)CC1` [Compound 25] are 6.6 and 9.2.
As to `CC(C)(C)OC(=O)NCCCC(=O)NCCN1CCC(=C2c3ccccc3C=Cc3ccccc32)CC1` [Compound 26], the pIC50 in the test with platelet of SD rats came out at 7.2.
With `CN(C)C(=O)NCCCC(=O)NCCN1CCC(=C2c3ccccc3C=Cc3ccccc32)CC1` [Compound 27], in the test with platelet of SD rats, the negative logarithm of the IC50 (pIC50) was 6.9. Further, on serotonin 2 receptor, the pKi is given as 9.2.
For the molecule `CNCCCC(=O)NCCN1CCC(=C2c3ccccc3C=Cc3ccccc32)CC1` [Compound 28], the pIC50 with platelet of SD rats worked out at 6.6.
Same read-out and setting: as for `CN(CCCC(=O)NCCN1CCC(=C2c3ccccc3C=Cc3ccccc32)CC1)C(=O)OC(C)(C)C` [Compound 29], the figure is 7.1.
On to `CC(C)(C)OC(=O)NCCCN1CCC(=C2c3ccccc3C=Cc3ccccc32)CC1` [Compound 31], for which the pKi on serotonin 2 receptor came out at 8.8.
For `C1=Cc2ccccc2C(=C2CCN(CCCCN3CCOCC3)CC2)c2ccccc21` [Compound 41], the negative-log IC50 (pIC50) with platelet of SD rats came out at 6.9. The “Increase in aggregation by serotonin” value in test [2] (0.3 mg/kg oral) stood at 91.5%. Moreover, the negative-log Ki (pKi) on serotonin 2 receptor amounted to 8.2.
Regarding `C1=Cc2ccccc2C(=C2CCN(CCCCN3CCSCC3)CC2)c2ccccc21` [Compound 42], the pIC50 with platelet of SD rats was determined as 6.6. The molecule further yielded a pKi at serotonin 2 receptor of 8.7.
In the case of `CN1CCC(=C2c3ccccc3C=Cc3ccccc32)CC1` [cycloheptadine, reference compound], the ID50 in test [1] stood at 0.12 mg/kg.

The values above are taken from US20020019533A1, “PIPERIDINE DERIVATIVES AND ANTI-PLATELET AGENTS CONTAINING THE SAME” (priority 1994, published 2002).
